7 compounds from patent US20140005163A1 (NOVARTIS AG, priority 2010, published 2014) can be followed below.

One test deals with T1, PI3K beta (Homo sapiens, UniProt P42338).
T1 construct: for the full-length p110-b subunit are generated and fused by overlapping PCR; p85(iSH2) fusion partner (see partner chain) (N); His tag (C); made in house; host or cells: baculovirus; Tn5 (Trichoplusia ni) or TiniPro insect cells
Description: PI3K beta kinase assay (Kinase-Glo luminescence). Type of test: biochemical. The essentials: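 p110β full-length/p85 iSH2 construct (BV-949), 25 nM, with 1 μM ATP and 10 μg/mL phosphatidylinositol in 10 mM Tris pH 7.5, 3 mM MgCl2, 50 mM NaCl, 0.05% CHAPS, 1 mM DTT. 60 min at room temperature; ATP remaining read by Kinase-Glo luminescence. IC50 from 8-point four-parameter logistic fit.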
A general note: Kinase-Glo measures the ATP left after a reaction by luminescence.

A further test has as its target T2, PI3K gamma (Homo sapiens, UniProt P48736).
T2 construct: His tag (C); made in house; host or cells: baculovirus (pVL1393); Tn5 or TiniPro insect cells; construct from Roger Williams lab, MRC LMB
Description: PI3K gamma kinase assay (Kinase-Glo luminescence). Type of test: biochemical. The essentials:
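Luminescent ATP-depletion (Kinase-Glo) assay with 150 nM PI3Kγ, 1 μM ATP and 10 μg/mL phosphatidylinositol in 10 mM Tris-HCl pH 7.5, 3 mM MgCl2, 50 mM NaCl, 0.05% CHAPS, 1 mM DTT; 120 min at room temperature. Eight-point dilutions; IC50 by four-parameter logistic fit.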

In test [1] the test system is S6 Ribosomal Protein phosphorylation Ser235/236 in TSC1 null mouse embryo fibroblast (MEF) cells. Description: Reverse protein array assay, S6 Ribosomal Protein phosphorylation Ser235/236 in TSC1 null MEF cells. Type of test: cell-based. As to conditions: 1 h, pS6 ribosomal protein Ser235/236, 60 minutes incubation, read-out: p-S6 IC50. The essentials: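 TSC1−/− MEFs, seeded and held ≥20 h at 37 °C/5% CO2, were exposed to 8-step serial compound dilutions (0.02% DMSO final; DMSO vehicle control) for 60 min at 37 °C. Cells were then lysed on ice for 10 min and lysates spotted onto reverse protein array chips.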

T2 sequence (P48736 144-1102 limits assumed): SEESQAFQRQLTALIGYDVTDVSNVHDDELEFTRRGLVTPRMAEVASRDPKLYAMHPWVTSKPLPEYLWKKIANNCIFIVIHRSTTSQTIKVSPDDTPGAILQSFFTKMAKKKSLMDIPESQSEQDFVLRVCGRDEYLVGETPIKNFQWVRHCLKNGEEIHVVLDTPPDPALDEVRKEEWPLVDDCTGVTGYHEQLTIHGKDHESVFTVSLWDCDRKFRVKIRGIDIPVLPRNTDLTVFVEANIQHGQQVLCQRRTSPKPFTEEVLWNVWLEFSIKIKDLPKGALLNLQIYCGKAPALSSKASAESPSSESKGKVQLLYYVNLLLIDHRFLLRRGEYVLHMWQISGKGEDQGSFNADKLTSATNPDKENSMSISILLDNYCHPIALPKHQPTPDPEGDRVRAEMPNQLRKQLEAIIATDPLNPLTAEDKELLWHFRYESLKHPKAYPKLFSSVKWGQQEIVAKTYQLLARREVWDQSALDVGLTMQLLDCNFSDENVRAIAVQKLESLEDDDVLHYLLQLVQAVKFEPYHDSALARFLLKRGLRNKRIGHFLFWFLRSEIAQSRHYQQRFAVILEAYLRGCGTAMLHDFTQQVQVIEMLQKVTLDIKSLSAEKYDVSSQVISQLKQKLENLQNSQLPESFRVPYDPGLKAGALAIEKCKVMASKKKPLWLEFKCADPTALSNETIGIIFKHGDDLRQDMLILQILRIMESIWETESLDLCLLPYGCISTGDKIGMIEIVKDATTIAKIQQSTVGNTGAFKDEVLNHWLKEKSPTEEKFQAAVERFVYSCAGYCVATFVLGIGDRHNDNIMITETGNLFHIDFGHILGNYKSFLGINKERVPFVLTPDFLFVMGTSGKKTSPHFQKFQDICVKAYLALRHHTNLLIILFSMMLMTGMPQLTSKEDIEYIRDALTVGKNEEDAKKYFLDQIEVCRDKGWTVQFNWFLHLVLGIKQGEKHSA
T1 sequence (P42338 with tags, fused parts or gaps limits assumed): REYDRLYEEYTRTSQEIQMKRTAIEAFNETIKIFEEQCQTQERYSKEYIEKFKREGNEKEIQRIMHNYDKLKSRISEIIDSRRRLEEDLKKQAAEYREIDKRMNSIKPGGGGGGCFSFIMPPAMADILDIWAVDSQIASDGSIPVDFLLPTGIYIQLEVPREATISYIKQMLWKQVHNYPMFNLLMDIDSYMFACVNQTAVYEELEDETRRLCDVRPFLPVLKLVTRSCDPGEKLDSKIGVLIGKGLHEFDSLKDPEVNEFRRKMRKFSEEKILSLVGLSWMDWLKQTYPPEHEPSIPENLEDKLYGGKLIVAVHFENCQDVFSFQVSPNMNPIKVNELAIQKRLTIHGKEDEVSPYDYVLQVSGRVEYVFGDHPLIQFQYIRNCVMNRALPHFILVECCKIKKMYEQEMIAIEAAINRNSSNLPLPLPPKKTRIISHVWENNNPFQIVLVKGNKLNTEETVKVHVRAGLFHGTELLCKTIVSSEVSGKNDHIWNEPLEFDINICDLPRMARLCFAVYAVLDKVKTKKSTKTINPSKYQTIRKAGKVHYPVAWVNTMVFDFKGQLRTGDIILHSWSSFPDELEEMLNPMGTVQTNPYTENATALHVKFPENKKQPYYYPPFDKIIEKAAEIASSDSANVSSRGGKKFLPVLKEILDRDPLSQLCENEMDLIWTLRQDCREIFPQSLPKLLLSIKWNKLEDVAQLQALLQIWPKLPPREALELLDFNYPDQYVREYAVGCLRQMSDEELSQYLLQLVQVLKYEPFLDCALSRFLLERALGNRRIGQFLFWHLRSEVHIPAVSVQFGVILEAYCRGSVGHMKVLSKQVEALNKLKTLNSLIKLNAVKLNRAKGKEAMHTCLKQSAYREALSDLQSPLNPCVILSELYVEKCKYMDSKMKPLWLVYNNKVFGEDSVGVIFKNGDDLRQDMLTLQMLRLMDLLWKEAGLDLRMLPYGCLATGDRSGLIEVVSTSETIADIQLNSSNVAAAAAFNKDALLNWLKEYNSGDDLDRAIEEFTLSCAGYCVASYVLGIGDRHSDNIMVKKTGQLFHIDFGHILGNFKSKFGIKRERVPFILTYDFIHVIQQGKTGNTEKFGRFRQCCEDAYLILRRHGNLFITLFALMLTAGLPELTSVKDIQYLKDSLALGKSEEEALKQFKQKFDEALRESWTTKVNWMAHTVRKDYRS

Broadly, the IC50 is the concentration needed to halve the response being measured. As for `CN(C)c1ccc(-c2ccc3ncc4c(c3c2)n(-c2cn(C)nc2Cl)c(=O)n4C)cn1` [Example 4.9, 1-(3-Chloro-1-methyl-1H-pyrazol-4-yl)-8-(6-dimethylamino-pyridin-3-yl)-3-methyl-1,3-dihydro-imidazo[4,5-c]quinolin-2-one], the concentration for half-maximal inhibition (IC50) is 59 nM at PI3K beta, 150 nM on PI3K gamma and 2 nM in test [1].
Regarding `CNS(=O)(=O)c1cccc(-c2ccc3ncc4c(c3c2)n(-c2cn(C)nc2C)c(=O)n4C)c1` [Example 39, 3-[1-(1,3-Dimethyl-1H-pyrazol-4-yl)-3-methyl-2-oxo-2,3-dihydro-1H-imidazo[4,5-c]quinolin-8-yl]-N-methyl-benzenesulfonamide], the figures for the IC50 (at PI3K beta; on PI3K gamma; in test [1]) were 13 nM, 75 nM and 37 nM, respectively.
As for `Cc1nn(C)cc1-n1c(=O)n(C)c2cnc3ccc(-c4cccc(NS(C)(=O)=O)c4)cc3c21` [Example 47, N-{3-[1-(1,3-dimethyl-1H-pyrazol-4-yl)-3-methyl-2-oxo-2,3-dihydro-1H-imidazo[4,5-c]quinolin-8-yl]-phenyl}-methanesulfonamide], the IC50 on PI3K beta is 811 nM; at PI3K gamma it was 701 nM; in test [1], 127 nM.
For the compound `Cc1nn(C)cc1-n1c(=O)n(C)c2cnc3ccc(-c4ccc(-c5ncc[nH]5)cc4)cc3c21` [Example 77, 1-(1,3-Dimethyl-1H-pyrazol-4-yl)-8-[4-(1H-imidazol-2-yl)-phenyl]-3-methyl-1,3-dihydro-imidazo[4,5-c]quinolin-2-one], the values for the 50% inhibitory concentration (IC50) (at PI3K beta; on PI3K gamma; in test [1]) were 24 nM, 75 nM and 5 nM, respectively.
For `Cc1nn(C)cc1-n1c(=S)n(C)c2cnc3ccc(-c4cccnc4)cc3c21` [Example 128.1, 1-(1,3-Dimethyl-1H-pyrazol-4-yl)-3-methyl-8-pyridin-3-yl-1,3-dihydro-imidazo[4,5-c]quinoline-2-thione], in that order: 35 nM, 142 nM and 9 nM.
For `COc1ccc(-c2ccc3ncc4c(c3c2)n(-c2cn(C)nc2C)c(=S)n4C)cc1OC` [Example 128.2, 8-(3,4-Dimethoxy-phenyl)-1-(1,3-dimethyl-1H-pyrazol-4-yl)-3-methyl-1,3-dihydro-imidazo[4,5-c]quinoline-2-thione], in that order: 17 nM, 117 nM and 1 nM.
For `CCn1cc(-n2c(=O)n(C)c3cnc4ccc(-c5ccc(OC)c(OC)c5)nc4c32)c(C)n1` [Example 254, 8-(3,4-Dimethoxy-phenyl)-1-(1-ethyl-3-methyl-1H-pyrazol-4-yl)-3-methyl-1,3-dihydro-1,3,5,9-tetraaza-cyclopenta[a]naphthalen-2-one], in that order: 62 nM, 145 nM and 58 nM.
